± gives the standard deviation of the reports.
SMILES | glass transition temperature [°C]
*Oc1c([2H])c([2H])c(S(=O)(=O)c2c([2H])c([2H])c(Oc3c([2H])c([2H])c(C(c4c([2H])c([2H])c(*)c([2H])c4[2H])(C([2H])([2H])[2H])C([2H])([2H])[2H])c([2H])c3[2H])c([2H])c2[2H])c([2H])c1[2H] (repeat unit) | 175.00
*SC(*)(F)F (repeat unit) | -118.00
*c1ccc(Oc2ccc(S(=O)(=O)c3ccc(Oc4ccc(-c5c6c(c(*)c7ccccc57)C(=O)N(CCCCCCCCCCCC)C6=O)cc4)cc3)cc2)cc1 (repeat unit) | 167.00
*CCCCCCC(=O)Oc1ccc(-c2ccc(OC(=O)c3ccc4c(c3)C(=O)N(*)C4=O)cc2)cc1 (repeat unit) | 107.00
*Oc1ccc(C(=O)OCCOC(=O)c2ccc(*)cc2)cc1 (repeat unit) | 74.00
*Cc1cc2cc(C(=O)Nc3ccc(S(=O)(=O)c4ccc(NC(=O)c5cc6cc(*)c(OC(=O)COc7ccc8ccc(=O)oc8c7)cc6oc5=O)cc4)cc3)c(=O)oc2cc1OC(=O)COc1ccc2ccc(=O)oc2c1 (repeat unit) | 233.00
*/C=[CH]/[Ge]([*])([c]1ccccc1)[c]1ccccc1 (repeat unit) | -36.00
*CC(*)(C)C(=O)OCC1COC(CP(=O)(OCC)OCC)O1 (repeat unit) | 115.00
*CC(*)(CC(=O)OC(C)C)C(=O)OC12CC3CC(CC(C3)C1)C2 (repeat unit) | 180.00
*CC(*)OC(=O)c1cccnc1 (repeat unit) | 86.50
*c1ccc(CC(=O)Nc2ccc(-c3ccc(NC(=O)Cc4ccc(-c5sc(*)c(-c6ccccc6)c5-c5ccccc5)cc4)cc3)cc2)cc1 (repeat unit) | 272.00
*Nc1ccc(NC(=O)c2cc(C(*)=O)cc(S(=O)(=O)c3ccccc3)c2)cc1 (repeat unit) | 308.00
*CCCCCCCCCCNC(=O)c1ccc(C(=O)N*)c(Sc2ccccc2)c1 (repeat unit) | 100.00
*C(=O)c1ccc2c(c1)C(=O)N(c1ccc(C(=O)Nc3ccc(N4C(=O)c5ccc(*)cc5C4=O)cc3)cc1)C2=O (repeat unit) | 300.00
*CC(*)(C)C(=O)OCc1ccc2c(c1)c1ccccc1n2CCCCCC (repeat unit) | 73.00
*CCCCCCCCCCCCCCNC(=O)CCc1ccc(CCC(=O)N*)cc1 (repeat unit) | 85.00
*Oc1ccc(NC(=O)c2ccc(Oc3ccc(C(C)(C)c4cccc(C(C)(C)c5ccc(Oc6ccc(C(=O)Nc7ccc(Oc8ccc(C(C)(C)c9ccc(*)cc9)cc8)cc7)cc6)cc5)c4)cc3)cc2)cc1 (repeat unit) | 147.00
*CCCCCCNC(=O)CC(=O)N* (repeat unit) | 50.00
*Nc1cccc2c(NC(=O)Nc3cc(NC(*)=O)cc(C(=O)Nc4cccc5c4C(=O)c4ccccc4C5=O)c3)cccc12 (repeat unit) | 185.00
*Oc1ccc(CC(NC(=O)CCc2ccc(OC(=O)CCC(*)=O)cc2)C(=O)OCCCCCCCCCCCC)cc1 (repeat unit) | 40.00
*c1ccccc1CCc1ccc(N2C(=O)C(=O)N(c3ccc(C)c(N4C(=O)C(=O)N(*)C4=O)c3)C2=O)cc1 (repeat unit) | 255.00
*c1ccc(Oc2ccc(-c3ccc4nc(Oc5cc(-c6ccccc6)c6cc(*)ccc6n5)cc(-c5ccccc5)c4c3)cc2)cc1 (repeat unit) | 268.50

SMILES | glass transition temperature [°C]
*CC(C)(C)C1C(=O)N(c2ccccc2)C(=O)C1* (repeat unit) | 188.00
*CC(*)(C)C(=O)OCCN(C)C (repeat unit) | 28.62
*CCCCCOC(=O)c1ccc(/C=C/c2ccc(C(=O)O*)cc2)cc1 (repeat unit) | 60.00
*CCC1C(=O)N(CCCCCC)C(=O)C1* (repeat unit) | 41.50
*C(=O)c1cccc(C(=O)c2ccc3c(c2)C(=O)N(c2ccc(Oc4ccc(N5C(=O)c6ccc(*)cc6C5=O)cc4)cc2)C3=O)c1 (repeat unit) | 244.00
*Oc1ccc(CC(NC(=O)CCc2ccc(OC(=O)CCCCC(*)=O)cc2)C(=O)OCCCCCC)cc1 (repeat unit) | 37.73
*/C(C)=C(/*)[Si](C)(C)CC[Si](C)(C)C (repeat unit) | 200.00
*CCN(CCOC(=O)c1cc(OC2CCN(c3ccc(S(=O)(=O)C(F)(F)C(F)(F)C(F)(F)C(F)(F)C(F)(F)C(F)(F)C(F)(F)C(F)(F)F)cc3)CC2)cc(C(=O)O*)c1)c1ccc(S(=O)(=O)C(F)(F)C(F)(F)C(F)(F)C(F)(F)C(F)(F)C(F)(F)C(F)(F)C(F)(F)F)cc1 (repeat unit) | 99.00
*c1ccc(-c2ccc3nc(*)cc(-c4ccccc4)c3c2)cc1 (repeat unit) | 383.00
*Oc1ccc(Oc2ccc(/C(=N/c3ccc(/N=C(\c4ccccc4)c4ccc(*)cc4)cc3)c3ccccc3)cc2)cc1 (repeat unit) | 176.00
*C(=O)Nc1ccc(C2(c3ccc(N4C(=O)c5ccc(*)cc5C4=O)cc3)CCC(CC)CC2)cc1 (repeat unit) | 312.00
*CC1(*)OCC(c2ccccc2)O1 (repeat unit) | 75.00
*/C=C/C1CC(*)C(F)(F)C1(F)OC(F)(F)C(F)(F)C(F)(F)F (repeat unit) | 77.00
*Oc1ccc(C(=O)Nc2cc(NC(=O)c3ccc(*)cc3)cc(-c3nc4ccccc4[nH]3)c2)cc1 (repeat unit) | 335.00
*CCCCCCOC(=O)C(CCCCCCCCCCP(=O)(O)O)C(=O)OCCCCCCOc1ccc(-n2on2-c2ccc(O*)cc2)cc1 (repeat unit) | 16.00
*c1ccc2c(c1)C(=O)N(c1cccc(C(F)(F)C(F)(F)C(F)(F)c3cccc(N4C(=O)c5ccc(C(F)(F)C(F)(F)C(F)(F)C(*)(F)F)cc5C4=O)c3)c1)C2=O (repeat unit) | 159.00
*C(=O)Nc1ccc(Cc2ccc(NC(=O)c3ccc4c(c3)C(=O)N(c3ccc(NC(=O)Nc5ccc(N6C(=O)c7ccc(*)cc7C6=O)cc5)cc3)C4=O)cc2)cc1 (repeat unit) | 211.00
*CC(*)OC(=O)c1ccc(OCC)cc1 (repeat unit) | 70.00
*Oc1ccc(C(c2ccc(OC(=O)OC3C(C)(C)C(OC(*)=O)C3(C)C)cc2)(C(F)(F)F)C(F)(F)F)cc1 (repeat unit) | 142.00
*CCCC(C)(C)CCCn1c(=O)c2cc3c(=O)n(*)c(=O)c3cc2c1=O (repeat unit) | 135.00
*c1cc(CCCCCCOC(=O)Cc2ccccc2)c(*)s1 (repeat unit) | 45.00
*CC(*)CCCCCC (repeat unit) [Poly(hexylethylene)] | -54.58 ± 0.8

SMILES | glass transition temperature [°C]
*CC(*)OC(=O)C1CCCC1 (repeat unit) | 36.00
*CC(*)c1ccc(CCCCCC)cc1 (repeat unit) | -27.00
*Oc1ccc(C(C)(C)c2ccc(Oc3ccc(C(=O)c4ccc(-c5ccc(C(=O)c6ccc(*)cc6)cc5)cc4)cc3)cc2)cc1 (repeat unit) | 186.00
*c1ccc(Oc2ccc(C3(c4ccc(Oc5ccc(N6C(=O)c7ccc(Oc8ccc(C9(c%10ccc(Oc%11ccc%12c(c%11)C(=O)N(*)C%12=O)cc%10)CCC(c%10ccccc%10)CC9)cc8)cc7C6=O)cc5)cc4)CC4CCC3C4)cc2)cc1 (repeat unit) | 245.00
*Nc1ccc(C(C)(C)c2ccc(NC(=O)c3cc(C(*)=O)cc(N4C(=O)C5CC=CCC5C4=O)c3)cc2)cc1 (repeat unit) | 308.00
*O[Si](C)(C)C#C[Si](C)(C)C#C[Si](C)(C)C#C[Si](C)(C)C#C[Si](C)(C)C#C[Si](C)(C)C#C[Si](*)(C)C (repeat unit) | -12.60
*Nc1cc([N+](=O)[O-])c(NC(=O)CCCCCCCCCCCCC(*)=O)cc1/C=C/c1ccc(N(C)C)cc1 (repeat unit) | 125.00
*c1ccc2c(c1)C(=O)N(c1ccc(Oc3ccc(C(c4ccc(Oc5ccc(N6C(=O)c7ccc(C(*)(C(F)(F)F)C(F)(F)F)cc7C6=O)cc5C(F)(F)F)cc4)(C(F)(F)F)C(F)(F)F)cc3)c(C(F)(F)F)c1)C2=O (repeat unit) | 234.00
*CC(C)(C)O* (repeat unit) | 40.50
*C1Cc2ccccc2C1* (repeat unit) | 188.50
*/C=C/c1cc(OCC(CC)CCCC)c(/C=C/c2ccc3c4ccc(*)cc4n(CC(CC)CCCC)c3c2)cc1OCC(CC)CCCC (repeat unit) | 61.00
*c1cc(Br)c(-c2c(Br)cc(N3C(=O)c4ccc(-c5ccc6c(c5)C(=O)N(*)C6=O)cc4C3=O)cc2C(=O)OCCCCCCCCCCCCCC)c(C(=O)OCCCCCCCCCCCCCC)c1 (repeat unit) | 98.00
*CCCCOC(=O)CCCCCCCCC(=O)O* (repeat unit) | -57.00
*c1ccc(C2(c3ccc(-c4cc(-c5ccccc5)c5cc(C6(c7ccc8nc(*)cc(-c9ccccc9)c8c7)c7ccccc7-c7ccccc76)ccc5n4)cc3)c3ccccc3C(=O)c3ccccc32)cc1 (repeat unit) | 385.00
*c1ccc(-c2ccc(-n3c(-c4ccc(Oc5ccc(C(=O)c6cccc(C(=O)c7ccc(Oc8ccc(-c9nc%10ccccc%10n9*)cc8)cc7)c6)cc5)cc4)nc4ccccc43)cc2)cc1 (repeat unit) | 244.00
*Cc1cccc(C[n+]2ccc(-c3cc[n+](*)cc3)cc2)c1 (repeat unit) | 128.00
*O[Si](C)(Oc1ccc(C(C)(C)c2ccc(*)cc2)cc1)c1ccccc1 (repeat unit) | 58.00
*CC(*)(C)C(=O)OCCCCCCCCCCOc1ccc(/N=N/c2ccc(C3OCC4(CO3)CC3C=CC4C3)cc2)cc1 (repeat unit) | 103.20
*CCCCCCOC(=O)OCCCCCCOC(=O)OCCCCCCOc1ccc(-c2ccc(O*)cc2)cc1 (repeat unit) | 16.60
*CCCCCCOC(=O)c1ccc(-c2ccc(-c3ccc(C(=O)O*)cc3)cc2)cc1 (repeat unit) | 60.00

Reference: the PolyMetriX glass transition set
